Data taken from patent US12729377B2, “RNAi agents and compositions for inhibiting expression of angiopoietin-like 3 (ANGPTL3), and methods of use” (Arrowhead Pharmaceuticals, Inc., priority 2017, dated 2026).
In the oligonucleotide strings, read from the 5' end, every base follows the letter of its sugar. An asterisk marks phosphorothioate; unmarked linkages are phosphodiester. Other units and linkages are bracketed, terminal groups are in braces. A string of capitals states the bases alone. {NAG37} = tridentate N-acetyl-galactosamine targeting ligand, structure (NAG37)s; [invAb] = inverted abasic unit; m = 2'-O-methyl; f = 2'-fluoro

Experiments:
Type in all cases: in vivo
ANGPTL3 gene [1] = experiment: Example 10: serum HDL in mice; conditions: 0.5 mg/kg single SC injection day 1, female C57bl/6 mice, n=3, ratio to D5W control
Method: (§1) To assess the in vivo activity of further ANGPTL3 RNAi agents that are designed to target position 304 on the ANGPTL3 gene, six- to eight-week-old female C57bl/6 mice were used. Pre-dose serum samples were taken at day −1 after a four hour fast. At day 1, each mouse was given a single subcutaneous administration of 200 μl containing 0.5 mg/kg (mpk) of an ANGPTL3 RNAi agent in D5W (dextrose in 5% water), or control (D5W) with no RNAi agent, according to the dosing groups recited in Table 47.
(§2) Each of the RNAi agents included a modified sequence and an N-acetyl-galactosamine-containing targeting ligand conjugated to the 5′ terminal end of the sense strand. (See Tables 3, 4, and 5 for modified sequences and targeting ligand structures). As noted above, each of the ANGPTL3 RNAi agents dosed in this study included nucleotide sequences designed to target the ANGPTL3 gene at position 304. The injections were performed between the skin and muscle (i.e. subcutaneous injections) into the loose skin over the neck and shoulder area. Three (3) mice in each group were tested (n=3). Serum was collected on days 8, 15, 22, 29, and for some groups on day 36 (i.e., Groups 1, 2, and 9-13 only). Mice were fasted for four hours prior to each collection. ANGPTL3 protein levels in serum were measured by ELISA assay (R&D Systems), according to the manufacturer's recommendations. Triglycerides, total cholesterol, high-density lipoprotein (HDL), and low-density lipoprotein (LDL) in serum were measured on a Cobas® Integra 400 (Roche Diagnostics), according to the manufacturer's recommendations.
(§3) The ANGPTL3 protein levels, triglyceride levels, total cholesterol levels, HDL levels, and LDL levels for each animal were normalized. For normalization, the level of ANGPTL3 protein, triglyceride, HDL, and total cholesterol, respectively, for each animal at a time point, was divided by the pre-treatment level of expression in that animal (in this case at day −1) to determine the ratio of expression “normalized to pre-treatment.” Expression at a specific time point was then normalized to the D5W control group by dividing the “normalized to pre-treatment” ratio for an individual animal by the mean “normalized to pretreatment” ratio of all mice in the D5W control group.

ANGPTL3 gene [2] = experiment: Example 13: serum total cholesterol in HFCS diet-fed Rhesus monkeys; conditions: for Avg Chol (Cholesterol) Normalized to Pre-Treatment (Fasted): 4.0 mg/kg sc on day 1 and day 29
Method: ANGPTL3 RNAi agent AD05488 was further evaluated in high-fructose corn syrup (HFCS) diet-fed Rhesus monkeys. Rhesus monkeys were placed on an HFCS diet 37 days prior to dosing. These animals were known to develop increased plasma triglycerides greater than 180 mg/dL on the HFCS diet. On day 1 and again on day 29, four (4) Rhesus monkeys were administered a subcutaneous injection containing 4.0 mg/kg of ANGPTL3 RNAi agent AD05488 formulated in saline (n=4). Two additional Rhesus monkeys were administered normal saline control.
Fasted blood samples were drawn for analysis, and serum samples were analyzed on days-8 (predose), 8, 15, 21, 29, and 36. ANGPTL3 expression levels, triglycerides, total cholesterol, high-density lipoprotein (HDL), and low-density lipoprotein (LDL) in serum were measured on a Cobas® Integra 400 (Roche Diagnostics), according to the manufacturer's recommendations.
The ANGPTL3 protein levels, triglyceride levels, total cholesterol levels, HDL levels, and LDL levels for each animal were normalized. For normalization, the level of ANGPTL3 protein, triglyceride, HDL, and total cholesterol, respectively, for each animal at a time point, was divided by the pre-treatment level of expression in that animal (in this case at day −8) to determine the ratio of expression “normalized to pre-treatment.”

ANGPTL3 gene [3] = experiment: Example 10: serum triglycerides in mice; conditions: 0.5 mg/kg single SC injection day 1, female C57bl/6 mice, n=3, ratio to D5W control
Method: as §1, §2, §3

ANGPTL3 gene [4] = experiment: Example 10: serum total cholesterol in mice; conditions: 0.5 mg/kg single SC injection day 1, female C57bl/6 mice, n=3, ratio to D5W control
Method: as §1, §2, §3

AD05488: RNAi agent duplex: antisense AM07235-AS, sense AM07234-SS (antisense mU*fA*mC*fUmGfAmUfCmAfAmAfUmAfUmGfUmUfGmAfG*mC; sense {NAG37}*[invAb]*mGmCmUmCmAmAmCmAfUfAfUmUmUmGmAmUmCmAmGmUmA*[invAb])
Average HDL Normalized to Pre-Treatment and Control (ANGPTL3 gene [1]; Day 8): 0.648
Average HDL Normalized to Pre-Treatment and Control (ANGPTL3 gene [1]; Day 15): 0.807
Average HDL Normalized to Pre-Treatment and Control (ANGPTL3 gene [1]; Day 22): 0.733
Average HDL Normalized to Pre-Treatment and Control (ANGPTL3 gene [1]; Day 29): 0.746
Average HDL Normalized to Pre-Treatment and Control (ANGPTL3 gene [1]; Day 36): 0.816
reductions in total cholesterol levels (ANGPTL3 gene [2]; 4.0 mg/kg on days 1 and 29, HFCS diet-fed Rhesus monkeys): reductions
Avg Chol (Cholesterol) Normalized to Pre-Treatment (Fasted) (ANGPTL3 gene [2]; Day 8): 0.734
Avg Chol (Cholesterol) Normalized to Pre-Treatment (Fasted) (ANGPTL3 gene [2]; Day 15): 0.641
Avg Chol (Cholesterol) Normalized to Pre-Treatment (Fasted) (ANGPTL3 gene [2]; Day 21): 0.579
Avg Chol (Cholesterol) Normalized to Pre-Treatment (Fasted) (ANGPTL3 gene [2]; Day 29): 0.549
Avg Chol (Cholesterol) Normalized to Pre-Treatment (Fasted) (ANGPTL3 gene [2]; Day 36): 0.459
Average Triglycerides Normalized to Pre-Treatmen and Control (ANGPTL3 gene [3]; Day 8): 0.646
Average Triglycerides Normalized to Pre-Treatmen and Control (ANGPTL3 gene [3]; Day 15): 0.669
Average Triglycerides Normalized to Pre-Treatmen and Control (ANGPTL3 gene [3]; Day 22): 0.723
Average Triglycerides Normalized to Pre-Treatmen and Control (ANGPTL3 gene [3]; Day 29): 0.739
Average Triglycerides Normalized to Pre-Treatmen and Control (ANGPTL3 gene [3]; Day 36): 0.843
Average Total Cholesterol Normalized to Pre-Treatment and Control (ANGPTL3 gene [4]; Day 8): 0.659
Average Total Cholesterol Normalized to Pre-Treatment and Control (ANGPTL3 gene [4]; Day 15): 0.808
Average Total Cholesterol Normalized to Pre-Treatment and Control (ANGPTL3 gene [4]; Day 22): 0.763
Average Total Cholesterol Normalized to Pre-Treatment and Control (ANGPTL3 gene [4]; Day 29): 0.743
Average Total Cholesterol Normalized to Pre-Treatment and Control (ANGPTL3 gene [4]; Day 36): 0.824
